Key:
[1] = target: human GABAA α1β3γ2 receptor (Homo sapiens (Human), UniProt P14867+P18507); experiment: Radioligand binding assay, competition for [3H]Flumazenil, γ2-containing GABAA subtypes; conditions: Table 1; for Ki: HEK293F cells, [3H]Flumazenil 1 nM, read-out: Ki h-GABAA α1β3γ2; for γ2/γ1 Selectivity Ratio: Ki α1β3γ2 (nM)/Ki α2β2γ1 (nM); for LogSel: Log[Ki α1β3γ2 (nM)/Ki α2β2γ1 (nM)]
Outline: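 Competition against [3H]Flumazenil binding in HEK293F cells transiently expressing human α1β3γ2 receptors, pellets resuspended in mannitol buffer pH 7,2-7,4. Incubated to equilibrium 1 hour at 4° C, filtered and washed with ice-cold 50 mM Tris pH 7.5, bound radioactivity by liquid scintillation counting. Ki values are means of two determinations.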

h-GABA-A α2β2γ1 = h-GABA-A α2β2γ1 (Homo sapiens (Human), UniProt P47869+Q8N1C3); experiment: Two-electrode voltage clamp electrophysiology in Xenopus oocytes expressing GABAA receptors; format: cell-based; conditions: for Efficacy (GABA) %: % modulation of GABA EC20 = 100*(Fold increase−1), compound at about 30-fold its Ki α2β2γ1; for Fold increase h-GABA-A α2β2γ1 oocyte @ 30-fold Ki: Xenopus oocytes, GABA EC20, compound at about 30-fold its Ki α2β2γ1
Outline: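 Xenopus oocytes injected with receptor subunit RNA and recorded 3–5 days later by two-electrode voltage clamp at −80 mV, room temperature, pH 7.4. GABA applied at EC20 for 1.5 min, with and without test compound. Efficacy = extremum of the point-by-point ratio of the two responses, expressed as % modulation of GABA EC20; ≥3 oocytes per concentration.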

[2] = target: human GABAA α2β2γ1 receptor (Homo sapiens (Human), UniProt P47869+Q8N1C3); experiment: Radioligand binding assay, competition for [3H]RO7239181, γ1-containing GABAA subtypes; conditions: Ki h-GABAA α2β2γ1, membranes of HEK293F cells, [3H]RO7239181 20-30 nM

Row | SMILES | Ki [1] [µM] | γ2/γ1 Selectivity Ratio [1] | LogSel [1] | Efficacy (GABA) % (h-GABA-A α2β2γ1) [%] | Fold increase h-GABA-A α2β2γ1 oocyte @ 30-fold Ki (h-GABA-A α2β2γ1) | Ki ([2]; Table 1) [µM] | Ki ([2]; Table 2) [µM]
1 | C[C@@H]1N=C(c2c(F)cccc2F)c2c(sc3c2COCCC3)-n2cc(C(=O)NCCO)nc21 [Example 66, (7S)-9-(2,6-difluorophenyl)-N-(2-hydroxyethyl)-7-methyl-13-oxa-18-thia-2,5,8-triazatetracyclo[8.8.0.02,6.011,17]octadeca-1(10),3,5,8,11(17)-pentaene-4-carboxamide] | 2.51 | 170.6 | 2.23 | 153 | 2.53 | 0.0147 | 0.0147
2 | C[C@@H]1N=C(c2c(F)cccc2F)c2c(sc3c2COCCC3)-n2cc(C(=O)NCC(C)(C)O)nc21 [Example 67, (7S)-9-(2,6-difluorophenyl)-N-(2-hydroxy-2-methyl-propyl)-7-methyl-13-oxa-18-thia-2,5,8-triazatetracyclo[8.8.0.02,6.011,17]octadeca-1(10),3,5,8,11(17)-pentaene-4-carboxamide] | 1.8 | 84.5 | 1.93 | 164 | 2.64 | 0.0213 | 0.0213
3 | C[C@@H]1N=C(c2c(F)cccc2F)c2c(sc3c2COCCC3)-n2cc(C(=O)NCC3(O)CC3)nc21 [Example 68, (7S)-9-(2,6-difluorophenyl)-N-[(1-hydroxycyclopropyl)methyl]-7-methyl-13-oxa-18-thia-2,5,8-triazatetracyclo[8.8.0.02,6.011,17]octadeca-1(10),3,5,8,11(17)-pentaene-4-carboxamide] | 1.98 | 187.5 | 2.27 | 159 | 2.59 | 0.0106 | 0.0106
4 | C[C@@H]1N=C(c2c(F)cccc2F)c2c(sc3c2COCCC3)-n2nc(C(=O)NC[C@@](C)(O)C(F)(F)F)nc21 [Example 70, (7S)-9-(2,6-difluorophenyl)-7-methyl-N-[(2R)-3,3,3-trifluoro-2-hydroxy-2-methyl-propyl]-13-oxa-18-thia-2,3,5,8-tetrazatetracyclo[8.8.0.02,6.011,17]octadeca-1(10),3,5,8,11(17)-pentaene-4-carboxamide] | 3.55 | 71.1 | 1.85 | 148 | 2.48 | 0.0499 | 0.0499

Reference: patent US20240294543A1, “CYCLOHEPTA-THIENO-DIAZEPINE DERIVATIVES AS GABA A GAMMA1 PAM” (Hoffmann-La Roche Inc., priority 2021, published 2024)
